Patent US20260273020A1, “OBESTATIN FOR USE AS ANTINEOPLASTIC AGENT IN THE TREATMENT OF PANCREATIC CANCER” (SERVIZO GALEGO DE SAÚDE, priority 2023, published 2026)

Legend:
KPC FC1242 cells = assay: Proliferation assay, cell counting under chronic obestatin treatment; type: cell-based, mouse
Experimental: The murine pancreatic cancer cells KPC FC1242 were isolated from PDAC tumour tissues obtained from LSL-KrasG12D; LSL-Trp53R172H; Pdx1-Cre mice of a pure C57BL/6 background. This cell line was kindly donated by David A. Tuveson (Cold Spring Harbor Laboratory, Cold Spring Harbor, New York, US). KPC FC1242 were maintained in DMEN (Lonza, Basel, CH), and supplemented with 10% fetal bovine serum (FBS; Hyclone, GE Healthcare Life Sciences, South Logan, UT, US), 4.5 g/L glucose, 200 mg/L sodium pyruvate, 584 mg/L L-glutamine and 1% penicillin/streptomycin (Sigma-Aldrich, St. Louis, MO, US) and incubated in an atmosphere containing 5% CO2 at 37° C. These cells were periodically tested and resulted negative for mycoplasma contamination.
For the analysis of proliferation the cells were seeded on 12-well plates at an amount of 50,000 cells per well and maintained for 24 h in culture media (see above) to allow attachment. The medium was completely removed and replaced with serum-free media for additional 24 h. […] Twenty-four h after the last treatment, the cells were trypsinized and manually counted with a Neubauer camera.
(§1) The total cells were calculated using the following equations counting 10 squares: […]

RWP1 cells = assay: as above; type: cell-based, human
Experimental: (§2) PANC1 cell line was obtained from ECACC (87092802; ECACC, Wiltshire, UK). RWP1 and BxPC3 human pancreatic cancer cell lines were kindly provided by FX Real (Epithelial Carcinogenesis Group, Cancer Cell Biology Programme, Spanish National Cancer Research Centre-CNIO, Madrid, ES). In brief, PANC1 cells were cultured in DMEM (supplemented with 4.5 g/L glucose, 10% FBS, and 1% penicillin/streptomycin), RWP1 and BxPC3 cell lines were maintained in RPMI (supplemented with 10% FBS and 1% penicillin/streptomycin) and incubated in an atmosphere containing 5% CO2 at 37° C. These cells were periodically tested and resulted negative for mycoplasma contamination.
(§3) For the analysis of proliferation the cells were seeded on 12-well plates at an amount of 50,000 cells per well and maintained for 24 h in culture media (see above) to allow attachment. The medium was completely removed and replaced with serum-free media for additional 24 h. Then, cells were treated or not with different doses of obestatin: mouse obestatin (corresponding to SEQ ID NO: 4) for KPC FC1242 and human obestatin (corresponding to SEQ ID NO: 1) for PANC1, RWP1 and BxPC3. The following treatments were used: 0% FBS as negative control, 10% FBS as positive control, 100 nM obestatin, 200 nM obestatin, 100 nM obestatin+10% FBS, and 200 nM obestatin+10% FBS. These treatments were administered every 24 h for three days. Twenty-four h after the last treatment, the cells were trypsinized and manually counted with a Neubauer camera.
as §1
(§4) In all cases, each experiment point was replicated eight times.

BxPC3 cells = assay: as above; type: cell-based, human
Experimental: as §2, §3, §1, §4

PANC1 cells = assay: as above; type: cell-based, human
Experimental: as §2, §3, §1, §4

[1] = tested on: Ki67 positive proliferative cells; assay: Ki67 immunohistochemistry of pancreatic tumours; type: in vivo, C57BL/6J mice; details: tumour area; obestatin 500 nmol/Kg/72 h
Experimental: FIG. 4. (A) Analysis and quantification of Ki67 positive proliferative cells by immunohistochemistry in the pancreatic tumors of C57BL/6J mice (n=4) orthotopically injected with KPC FC1242 cells and treated with vehicle [NaCl, 0.9% (w/v)] or obestatin (500 nmol/Kg/72 h). Magnification: 4×. (B) Immunoblot analysis of pERK1/2(T202/Y204), ERK1/2, pAkt(S473), and Akt in tumoral pancreatic tissue. Results are expressed as fold of control of the non-treated injected mice [control; mean±SE (*, P<0.05)].
Mice were weighed at set times over the 15-day period. The sterilized surgical material was used for the tissue extraction. […] Pancreases were also measured with a scale (cm) and pictures were taken. • Histology—Pancreas samples for histology were fixed in 4% paraformaldehyde in PBS at room temperature overnight. […] The lysates were clarified by centrifugation (18,000×g, 15 min, 4° C.), and the protein concentration was quantified by the Quantipro™ BCA assay kit (Sigma-Aldrich, St. Louis, MO, US). […]
EnVision™ peroxidase FLEX/HRP (Dako Agilent Technologies, Glostrup; DK) was employed as a detection system. […] Ki67 was analysed immunohistochemically. […] For Ki67 expression quantification in the samples, ten fields of the tumour representative DAB images were quantified by using the Fiji/Image J software.

[2] = 100 nM obestatin+10% FBS each 24 h for 72 h
[3] = human obestatin (SEQ ID NO: 1) 100 nM each 24 h for 72 h, serum-free

Q: For obestatin, which “effect on FBS-mediated proliferation” value (KPC FC1242 cells; [2]) is on record?
A: significant inhibitory effect

Q: What about the “proliferation (number of cells)” value (KPC FC1242 cells; mouse obestatin (SEQ ID NO: 4) 100 nM each 24 h for 72 h, serum-free) of the same substance?
A: does not activate the proliferation

Q: What about the “effect on FBS-mediated proliferation” value (RWP1 cells; [2]) of the same substance?
A: significant inhibitory effect

Q: And the “proliferation (number of cells)” value (RWP1 cells; [3])?
A: does not activate the proliferation

Q: And the “effect on FBS-mediated proliferation” value (BxPC3 cells; [2])?
A: significant inhibitory effect

Q: And the “proliferation (number of cells)” value (BxPC3 cells; [3])?
A: does not activate the proliferation

Q: What about the “effect on FBS-mediated proliferation” value (PANC1 cells; [2]) of the same substance?
A: significant inhibitory effect

Q: And the “proliferation (number of cells)” value (PANC1 cells; [3])?
A: does not activate the proliferation

Q: And the “diminution in the number of Ki67 positive cells” value [1]?
A: 56.0±5.2%
